Experimental data taken from the Kinase Knowledgebase extract (Sharma et al. 2016).

The compounds below were run against MAPK14 (UniProt Q16539) (assay: p38 Kinase Inhibition).
Sequence of MAPK14 (Q16539 whole entry, looked up): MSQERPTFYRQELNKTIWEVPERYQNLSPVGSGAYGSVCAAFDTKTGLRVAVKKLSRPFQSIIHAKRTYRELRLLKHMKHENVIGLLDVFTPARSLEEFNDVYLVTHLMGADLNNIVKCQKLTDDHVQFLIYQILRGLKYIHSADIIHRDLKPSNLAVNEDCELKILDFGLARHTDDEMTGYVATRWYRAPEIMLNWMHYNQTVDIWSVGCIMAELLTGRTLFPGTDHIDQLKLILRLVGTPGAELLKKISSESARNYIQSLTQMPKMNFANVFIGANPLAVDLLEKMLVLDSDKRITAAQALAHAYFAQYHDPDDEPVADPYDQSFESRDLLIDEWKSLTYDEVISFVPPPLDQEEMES

IC50, < 50 µM:
Fc1ccc(-c2ncn(C3CCCCC3)c2-c2ccnc(Nc3ccccc3)n2)cc1
CC(CCc1ccccc1)Nc1nccc(-c2c(-c3ccc(F)cc3)ncn2C2CCCCC2)n1 (stereo not given)
Cc1cccc(C)c1Nc1nccc(-c2c(-c3ccc(F)cc3)ncn2-c2ccc(F)cc2)n1
Fc1ccc(-c2ncn(C3CCCCC3)c2-c2ccnc(NCCCN3CCOCC3)n2)cc1
Fc1ccc(-c2ncn(-c3ccc(F)cc3)c2-c2ccnc(N3CCOC(Nc4ccccc4)C3)n2)cc1 (stereo not given)
Cc1ccc(F)cc1Nc1nccc(-c2c(-c3ccc(F)cc3)ncn2C2CCNCC2)n1
Cc1ccccc1Nc1nccc(-c2c(-c3ccc(F)cc3)ncn2-c2ccc(F)cc2)n1
Fc1ccc(-c2ncn(C3CCCCC3)c2-c2ccnc(NCCc3c[nH]cn3)n2)cc1
Cc1cccc(C)c1Nc1nccc(-c2c(-c3ccc(F)cc3)ncn2C2CCNCC2)n1
COc1ccc(C(=O)NCCn2cnc(-c3ccc(F)cc3)c2-c2ccnc(NCc3ccc(Cl)c(Cl)c3)n2)cc1OC
Cc1ccccc1Nc1nccc(-c2c(-c3ccc(F)cc3)ncn2C2CCNCC2)n1
Fc1ccc(-c2ncn(-c3ccc(F)cc3)c2-c2ccnc(Nc3ccccc3)n2)cc1
Cc1cc(F)ccc1Nc1nccc(-c2c(-c3ccc(F)cc3)ncn2C2CCN(C(=O)OC(C)(C)C)CC2)n1
Fc1ccc(-c2ncn(C3CCCCC3)c2-c2ccnc(NCCC(c3ccccc3)c3ccccc3)n2)cc1
CC(C)n1cnc(-c2ccc(F)cc2)c1-c1ccnc(Nc2ccccc2)n1
O=C(Nc1cccc(C(F)(F)F)c1)N1CCC(n2cnc(-c3ccc(F)cc3)c2-c2ccnc(Nc3ccccc3C(F)(F)F)n2)CC1
Fc1ccc(-c2ncn(C3CCCCC3)c2-c2ccnc(NCc3cccnc3)n2)cc1
CCOCC(=O)NCCn1cnc(-c2ccc(F)cc2)c1-c1ccnc(NCc2ccc(OC)cc2)n1
Fc1ccc(-c2ncn(C3CCCC3)c2-c2ccnc(Nc3ccccc3)n2)cc1
Fc1ccc(Nc2nccc(-c3c(-c4ccc(F)cc4)ncn3-c3ccc(F)cc3)n2)cc1
